{
  "source": "patent US8026211B2",
  "about": "“Methods and formulations for increasing intestinal function” (Technion Research & Development Foundation Ltd., priority 2004, dated 2011)",
  "format_in_all_cases": "in vivo",
  "key": {"enterocytes": {"tested_on": "enterocytes", "experiment": "Rat ischemia-reperfusion injury: enterocyte apoptosis (TUNEL assay)", "details": "IR rats, oral insulin; IR-untreated 2.8±0.7; p<0.05", "description": "Surgical procedure: Following overnight fasting, the animals were anesthetized with intraperitoneal injection of pentobarbital (IP 40 mg/kg). Using sterile techniques, the abdomen was opened using a midline incision. […] IR underwent laparotomy, mobilization and occlusion of SMA and portal vein by vascular clamp for 30 minutes followed by a reperfusion period of 24 hours. Before closure of the abdomen, the rats were resuscitated with a 3-ml intraperitoneal injection of warm 0.9% saline. For all operations, the abdominal cavity was closed in two layers with a running suture of Dexon “S” Polyglycolic Acid 3/0. Rats were allowed free access to water and food. Twenty-four hours later, the rats were anesthetized with intraperitoneal pentobarbital (75 mg/kg) and were sacrificed by open pneumothorax.\nApoptotic cells were identified using the terminal deoxynucleotidyl transferase-mediated, dUTP nick end-labeling (TUNEL) assay. Terminal deoxynucleotidyl transferase (TdT) (Boehringer Mannheim GmbH, Mannheim, Germany) was used to label DNA strand breaks. Incorporation of fluorescein was detected by anti-fluorescein antibody Fab fragments from sheep, conjugated with horse-radish peroxidase (POD) (Boehringer Mannheim GmbH, Mannheim, Germany). Briefly, five-micrometer paraffin-embedded sections were dewaxed and rehydrated with xylene and graded alcohol. […]"}, "[1]": {"tested_on": "rat model of short bowel syndrome", "experiment": "Rat model of SBS: histology, villus height and crypt depth", "description": "(§1) Animal treatment: Animals were obtained from the Rappaport Faculty of Medicine (Technion, Haifa, Israel). Male rats weighing 240-260 g were kept in individual stainless steel cages at constant temperature and humidity, and a 12-hour light-dark cycle was maintained. Rats were fasted 12 hours prior to the experiment with free access to water. Animals underwent one of two surgical procedures: bowel transection and re-anastomosis or 75% bowel resection and anastomosis. General anesthesia was induced with Pentobarbital (IP 40 mg/kg). Using sterile techniques, the abdomen was opened using a midline incision. In sham rats, simple bowel transection and end-to-end re-anastomosis was performed 15 cm proximal to ileo-cecal junction. In SBS animals, small bowel was resected from a point 5 cm distal to the ligament of Treitz to a point 10 cm proximal to the ileo-cecal junction. Bowel continuity was restored by end-to-end anastomosis using 5-0 Vicryl interrupted sutures. For all operations, the abdominal cavity was closed in two layers with a running suture of 3-0 Dexon. Prior to closure of the abdomen, the rats were resuscitated with a 3 ml intraperitoneal injection of warm normal saline. Rats were fasted for 24 hours but were allowed free access to water.\n(§2) Group C—SBS-Insulin (SBS-INS, n=13) rats underwent bowel resection and were fed regular chow diet and water containing insulin (ACTRAPID insulin, NOVO NORDISK, Denmark) at concentration of 1 u/ml. Food and fluid intake of animals were monitored as well as weight for a period of 14 days following treatment after which the animals were sacrificed following intraperitoneal injection of pentobarbital (75 mg/kg).\nSegments of small bowel were fixed for 24 hours in 10% formalin and processed into standard paraffin blocks. Five-micron tissue slices stained with hematoxylin-eosin. The sections were studied microscopically using a micrometer eyepiece. Histological images were loaded on a 760×570 pixels resolution buffer using a computerized image analysis system composed of a trichip RGB video-camera (Sony, Japan), installed on a light microscope (Zeiss, Germany) and attached to an IBM compatible personal computer (Pentium III, MMX, 450 mhz, 125 MB RAM), equipped with a frame grabber. […] The villus height and crypt depth were measured using the Image Pro Plus 4 image analysis software (Media Cybernetics, Baltimore, Md., USA). Ten villi and crypts in each section were measured and the mean reading was recorded in microns."}, "[2]": {"tested_on": "rat model of short bowel syndrome", "experiment": "Rat model of SBS: body weight and intestinal adaptation parameters (bowel circumference, bowel and mucosal weight, mucosal DNA and protein)", "description": "as §1\nExperimental design: Forty rats were randomly assigned to one of three groups:\nGroup A—sham-rats underwent bowel transection (sham, n=14) and than fed with regular chow diet.\nGroup B—SBS-animals underwent bowel resection (SBS, n=13) and than fed regular chow diet.\nas §2\nIntestinal adaptation parameters: The small bowel was rapidly removed, rinsed with cold isotonic saline and divided into two segments: jejunum proximal to anastomosis and terminal ileum. Each segment was weighed, cut longitudinally, bowel circumference was measured in three equidistant points as described by Dowling [Dowling R H, Booth C C, 1967, Clin Sci; 32: 139-149] and the mean circumference was calculated. Mucosa was scraped using a glass slide, collected and weighed. Bowel and mucosal weight was calculated per cm of bowel length per 100 g of body weight as described previously [Sukhotnik I, et al., 2002, J Surg Res., December; 108(2):235-42]. Although bowel length may change due to spasm or bowel distension, the calculation per unit of bowel length is considered to be the gold standard in describing structural changes in intestine. DNA and protein were extracted using TRIzol reagent (Rhenium LTD, Jerusalem). The DNA concentrations were recorded in a spectrophotometer and calculated per cm of bowel length. Final protein concentration was measured spectrophotometrically using a commercially available kit (Bio-Rad, Protein Assay) and was calculated per cm of bowel length.\nStatistical analysis: The data are expressed as the mean±SEM. A paired Student's t-test and the non-parametric Kruskal-Wallis ANOVA test were used as indicted. p<0.05 was considered statistically significant."}, "[3]": {"tested_on": "jejunal and ileal crypt cells", "experiment": "Rat model of SBS: crypt cell proliferation (5-BrdU incorporation)", "details": "SBS rats, oral insulin, vs SBS-untreated, p<0.05", "description": "Animal treatment: Animals were obtained from the Rappaport Faculty of Medicine (Technion, Haifa, Israel). Male rats weighing 240-260 g were kept in individual stainless steel cages at constant temperature and humidity, and a 12-hour light-dark cycle was maintained. Rats were fasted 12 hours prior to the experiment with free access to water. Animals underwent one of two surgical procedures: bowel transection and re-anastomosis or 75% bowel resection and anastomosis. General anesthesia was induced with Pentobarbital (IP 40 mg/kg). Using sterile techniques, the abdomen was opened using a midline incision. […]\nas §2\nCrypt Cell Proliferation and Enterocyte Apoptosis: Rats were injected with standard 5-bromodeoxyuridine (5-BrdU) labeling reagent (Zymed Lab, Inc, CA) at dose 1 ml per 100 g body weight two hours prior to sacrifice. […] An index of proliferation was determined as the ratio of crypt cells staining positively for BrdU per 10 crypts."}, "[4]": {"details": "SBS rats, oral insulin, vs SBS-untreated"}, "[5]": {"details": "SBS-insulin rats vs SBS-untreated, 14 days, p<0.05"}, "[6]": {"details": "SBS rats, oral insulin 1 u/ml in water, 14 days, vs SBS-untreated, p<0.05"}, "[7]": {"details": "SBS rats, oral insulin supplementation (summary)"}},
  "data": [
    {"substance": "insulin", "values": [
      {"measurement": "apoptotic index in ileum", "setting": "enterocytes", "result": "1.2±0.4 TUNEL positive cells/10 villi"},
      {"measurement": "villi height in jejunum", "setting": "[1]; [4]", "result": "not associated with an increase"},
      {"measurement": "increase in ileal crypt depth", "setting": "[1]; [5]", "result": 40, "unit": "%"},
      {"measurement": "increase in ileal villus height", "setting": "[1]; [5]", "result": 15, "unit": "%"},
      {"measurement": "increase in jejunal crypt depth", "setting": "[1]; [5]", "result": 15, "unit": "%"},
      {"measurement": "additional increase in ileal overall bowel weight", "setting": "[2]; [6]", "result": 40, "unit": "%"},
      {"measurement": "additional increase in jejunal mucosal weight", "setting": "[2]; [6]", "result": 33, "unit": "%"},
      {"measurement": "additional increase in jejunal overall bowel weight", "setting": "[2]; [6]", "result": 18, "unit": "%"},
      {"measurement": "increase in ileal mucosal DNA content", "setting": "[2]; [6]", "result": "almost two-fold increase"},
      {"measurement": "increase in ileal mucosal protein content", "setting": "[2]; [6]", "result": "two-fold increase"},
      {"measurement": "increase in ileal mucosal weight", "setting": "[2]; [6]", "result": "almost two fold increase"},
      {"measurement": "increase in mucosal weight in the remaining segments", "setting": "[2]; [7]", "result": "30-200%"},
      {"measurement": "increase in overall bowel weight in the remaining segments", "setting": "[2]; [7]", "result": "20-50%"},
      {"measurement": "increase in bowel diameter", "setting": "[2]; SBS rats, oral insulin supplementation, remaining segments (summary)", "result": "approximately 10%"},
      {"measurement": "mucosal DNA in jejunum", "setting": "[2]; [4]", "result": "not associated with an increase"},
      {"measurement": "mucosal protein in jejunum", "setting": "[2]; [4]", "result": "not associated with an increase"},
      {"measurement": "body weight gain", "setting": "[2]; SBS-INS rats (insulin 1 u/ml in water) vs SBS-nontreated, day 7 through 14, p<0.05", "result": "gained weight at greater rate"},
      {"measurement": "jejunal and ileal bowel circumference", "setting": "[2]; SBS-insulin rats vs SBS-untreated, 14 days, insulin 1 u/ml in water", "result": "additional increase"},
      {"measurement": "additional increase in proliferation index in jejunum", "setting": "[3]", "result": 36, "unit": "%"},
      {"measurement": "increase in proliferation index in ileum", "setting": "[3]", "result": 52, "unit": "%"}
    ]}
  ]
}
